Laboratory results: PubChem BioAssay (NCI)
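Compound exposure: 48 hours, 5 concentrations, 96-well plates. GI50: concentration for 50% inhibition of growth. At the TGI there is no net growth.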

What was measured:
Assay in all cases: NCI tumour cell line growth inhibition, 48 h
786-0 renal = system: 786-0 renal
A498 renal = system: A498 renal
A549 NSCLC = system: A549 NSCLC
ACHN renal = system: ACHN renal
BT-549 breast = system: BT-549 breast
CAKI-1 renal = system: CAKI-1 renal
CCRF-CEM leukemia = system: CCRF-CEM leukemia
COLO 205 colon = system: COLO 205 colon
DU-145 prostate = system: DU-145 prostate
EKVX NSCLC = system: EKVX NSCLC
HCC-2998 colon = system: HCC-2998 colon
HCT-116 colon = system: HCT-116 colon
HCT-15 colon = system: HCT-15 colon
HL-60(TB) leukemia = system: HL-60(TB) leukemia
HOP-62 NSCLC = system: HOP-62 NSCLC
HOP-92 NSCLC = system: HOP-92 NSCLC
HS 578T breast = system: HS 578T breast
HT29 colon = system: HT29 colon
IGROV1 ovarian = system: IGROV1 ovarian
K-562 leukemia = system: K-562 leukemia
KM12 colon = system: KM12 colon
LOX IMVI melanoma = system: LOX IMVI melanoma
M14 melanoma = system: M14 melanoma
MCF7 breast = system: MCF7 breast
MDA-MB-231 breast = system: MDA-MB-231 breast
MDA-MB-435 = system: MDA-MB-435
MOLT-4 leukemia = system: MOLT-4 leukemia
NCI-H226 lung = system: NCI-H226 lung
NCI-H23 lung = system: NCI-H23 lung
NCI-H460 lung = system: NCI-H460 lung
NCI-H522 lung = system: NCI-H522 lung
NCI/ADR-RES ovarian = system: NCI/ADR-RES ovarian
OVCAR-3 ovarian = system: OVCAR-3 ovarian
OVCAR-4 ovarian = system: OVCAR-4 ovarian
OVCAR-5 ovarian = system: OVCAR-5 ovarian
OVCAR-8 ovarian = system: OVCAR-8 ovarian
PC-3 prostate = system: PC-3 prostate
RPMI-8226 leukemia = system: RPMI-8226 leukemia
RXF 393 renal = system: RXF 393 renal
SF-268 CNS = system: SF-268 CNS
SF-295 CNS = system: SF-295 CNS
SF-539 CNS = system: SF-539 CNS
SK-MEL-2 melanoma = system: SK-MEL-2 melanoma
SK-MEL-28 melanoma = system: SK-MEL-28 melanoma
SK-MEL-5 melanoma = system: SK-MEL-5 melanoma
SK-OV-3 ovarian = system: SK-OV-3 ovarian
SN12C renal = system: SN12C renal
SNB-19 CNS = system: SNB-19 CNS
SNB-75 CNS = system: SNB-75 CNS
SR leukemia = system: SR leukemia
SW-620 colon = system: SW-620 colon
T-47D breast = system: T-47D breast
TK-10 renal = system: TK-10 renal
U251 CNS = system: U251 CNS
UACC-257 melanoma = system: UACC-257 melanoma
UACC-62 melanoma = system: UACC-62 melanoma
UO-31 renal = system: UO-31 renal

For `O=C(Nc1cccc(C(F)(F)F)c1)c1ccc(NC2=C(Cl)C(=O)N(Cc3ccccc3)C2=O)cc1`, the GI50 (786-0 renal) was 12.1 µM, the TGI (786-0 renal) was 24.5 µM and the GI50 (A498 renal) was 24.4 µM. It also gave a TGI (A498 renal) of 45.7 µM, a GI50 (A549 NSCLC) of 34.1 µM and a TGI (A549 NSCLC) of 84.9 µM. For the same molecule, the GI50 (ACHN renal) was 15.3 µM, the TGI (ACHN renal) was 29.5 µM and the GI50 (BT-549 breast) was 1.25 µM. The TGI (BT-549 breast) was 5.49 µM, the GI50 (CAKI-1 renal) was 1.65 µM and the TGI (CAKI-1 renal) was 3.24 µM. The GI50 (CCRF-CEM leukemia) was 3.06 µM, the TGI (CCRF-CEM leukemia) was over 100 µM and the GI50 (COLO 205 colon) was 21.9 µM. The TGI (COLO 205 colon) was 49.8 µM, the GI50 (DU-145 prostate) was 3.38 µM and the TGI (DU-145 prostate) was 12.3 µM. The GI50 (EKVX NSCLC) was 23.5 µM, the TGI (EKVX NSCLC) was 54.4 µM and the GI50 (HCC-2998 colon) was 1.29 µM. For the same molecule, the TGI (HCC-2998 colon) was 2.85 µM, the GI50 (HCT-116 colon) was 2.81 µM and the TGI (HCT-116 colon) was 9.22 µM. For the same molecule, the GI50 (HCT-15 colon) was 4.41 µM, the TGI (HCT-15 colon) was 18.9 µM and the GI50 (HL-60(TB) leukemia) was 2.08 µM. The TGI (HL-60(TB) leukemia) was 5.64 µM, the GI50 (HOP-62 NSCLC) was 13.1 µM and the TGI (HOP-62 NSCLC) was 25.8 µM. It also gave a GI50 (HOP-92 NSCLC) of 3.93 µM, a TGI (HOP-92 NSCLC) of 14.2 µM and a GI50 (HS 578T breast) of 22.1 µM. The TGI (HS 578T breast) was over 100 µM, the GI50 (HT29 colon) was 13.6 µM and the TGI (HT29 colon) was 52 µM. For the same molecule, the GI50 (IGROV1 ovarian) was 2.01 µM, the TGI (IGROV1 ovarian) was 4.63 µM and the GI50 (K-562 leukemia) was 1.46 µM. The TGI (K-562 leukemia) was 12.5 µM, the GI50 (KM12 colon) was 10.5 µM and the TGI (KM12 colon) was 24.8 µM. It also gave a GI50 (LOX IMVI melanoma) of 2.45 µM, a TGI (LOX IMVI melanoma) of 6.6 µM and a GI50 (M14 melanoma) of 9.26 µM. It also gave a TGI (M14 melanoma) of 21.7 µM, a GI50 (MCF7 breast) of 2.02 µM and a TGI (MCF7 breast) of 4.54 µM. For the same molecule, the GI50 (MDA-MB-231 breast) was 6.53 µM, the TGI (MDA-MB-231 breast) was 23.9 µM and the GI50 (MDA-MB-435) was 6.92 µM. It also gave a TGI (MDA-MB-435) of 20.5 µM, a GI50 (MOLT-4 leukemia) of 1.27 µM and a TGI (MOLT-4 leukemia) of 10.3 µM. The GI50 (NCI-H226 lung) was 16 µM, the TGI (NCI-H226 lung) was 35.8 µM and the GI50 (NCI-H23 lung) was 4.13 µM. It also gave a TGI (NCI-H23 lung) of 13.4 µM, a GI50 (NCI-H460 lung) of 5.91 µM and a TGI (NCI-H460 lung) of 57 µM. For the same molecule, the GI50 (NCI-H522 lung) was 3.02 µM, the TGI (NCI-H522 lung) was 8.29 µM and the GI50 (NCI/ADR-RES ovarian) was 10.8 µM. The TGI (NCI/ADR-RES ovarian) was 25.4 µM, the GI50 (OVCAR-3 ovarian) was 2.09 µM and the TGI (OVCAR-3 ovarian) was 4.63 µM. The GI50 (OVCAR-4 ovarian) was 25.8 µM, the TGI (OVCAR-4 ovarian) was 54.7 µM and the GI50 (OVCAR-5 ovarian) was 16.3 µM. For the same molecule, the TGI (OVCAR-5 ovarian) was 34.5 µM, the GI50 (OVCAR-8 ovarian) was 38.4 µM and the TGI (OVCAR-8 ovarian) was over 100 µM. The GI50 (PC-3 prostate) was 14 µM, the TGI (PC-3 prostate) was 27 µM and the GI50 (RPMI-8226 leukemia) was 2.17 µM. For the same molecule, the TGI (RPMI-8226 leukemia) was 4.88 µM, the GI50 (RXF 393 renal) was 29.4 µM and the TGI (RXF 393 renal) was 64.8 µM. For the same molecule, the GI50 (SF-268 CNS) was 6.41 µM, the TGI (SF-268 CNS) was 29.9 µM and the GI50 (SF-295 CNS) was 10.1 µM. It also gave a TGI (SF-295 CNS) of 23.6 µM, a GI50 (SF-539 CNS) of 14.9 µM and a TGI (SF-539 CNS) of 34.1 µM. For the same molecule, the GI50 (SK-MEL-2 melanoma) was 7.04 µM, the TGI (SK-MEL-2 melanoma) was 24.2 µM and the GI50 (SK-MEL-28 melanoma) was 18.2 µM. The TGI (SK-MEL-28 melanoma) was 36.5 µM, the GI50 (SK-MEL-5 melanoma) was 4.07 µM and the TGI (SK-MEL-5 melanoma) was 18.1 µM. For the same molecule, the GI50 (SK-OV-3 ovarian) was 25.7 µM, the TGI (SK-OV-3 ovarian) was 82.6 µM and the GI50 (SN12C renal) was 4.4 µM. It also gave a TGI (SN12C renal) of 20.1 µM, a GI50 (SNB-19 CNS) of 20.4 µM and a TGI (SNB-19 CNS) of 40.5 µM. It also gave a GI50 (SNB-75 CNS) of 23.1 µM, a TGI (SNB-75 CNS) of 51.4 µM and a GI50 (SR leukemia) of 0.421 µM. The TGI (SR leukemia) was 2.82 µM, the GI50 (SW-620 colon) was 5.11 µM and the TGI (SW-620 colon) was over 100 µM. It also gave a GI50 (T-47D breast) of 12.4 µM, a TGI (T-47D breast) of 52.7 µM and a GI50 (TK-10 renal) of 17.9 µM. It also gave a TGI (TK-10 renal) of 37.4 µM, a GI50 (U251 CNS) of 13.7 µM and a TGI (U251 CNS) of 27.1 µM. For the same molecule, the GI50 (UACC-257 melanoma) was 27.9 µM, the TGI (UACC-257 melanoma) was 58 µM and the GI50 (UACC-62 melanoma) was 12.9 µM. The TGI (UACC-62 melanoma) was 25.5 µM, the GI50 (UO-31 renal) was 2.84 µM and the TGI (UO-31 renal) was 9.06 µM.
